In patent US20030096958A1, “Human NHE2” (Pfizer Inc., priority 2001, published 2003):
Where two headings read alike, the source gives them in different places.

Columns and labels:
human NHE2-LF = biological target: T1, human NHE2-LF (Homo sapiens, UniProt Q9UBY0); test: FLIPR assay of Na+/H+ exchange (BCECF fluorescence recovery) in human NHE2-LF transfected PS120 cells; type: cell-based; details: read-out: IC50 Values Determined By FLIPR, NHE2-LF
T1 construct: expressed in transfected cells
T1 sequence (Q9UBY0 1-812): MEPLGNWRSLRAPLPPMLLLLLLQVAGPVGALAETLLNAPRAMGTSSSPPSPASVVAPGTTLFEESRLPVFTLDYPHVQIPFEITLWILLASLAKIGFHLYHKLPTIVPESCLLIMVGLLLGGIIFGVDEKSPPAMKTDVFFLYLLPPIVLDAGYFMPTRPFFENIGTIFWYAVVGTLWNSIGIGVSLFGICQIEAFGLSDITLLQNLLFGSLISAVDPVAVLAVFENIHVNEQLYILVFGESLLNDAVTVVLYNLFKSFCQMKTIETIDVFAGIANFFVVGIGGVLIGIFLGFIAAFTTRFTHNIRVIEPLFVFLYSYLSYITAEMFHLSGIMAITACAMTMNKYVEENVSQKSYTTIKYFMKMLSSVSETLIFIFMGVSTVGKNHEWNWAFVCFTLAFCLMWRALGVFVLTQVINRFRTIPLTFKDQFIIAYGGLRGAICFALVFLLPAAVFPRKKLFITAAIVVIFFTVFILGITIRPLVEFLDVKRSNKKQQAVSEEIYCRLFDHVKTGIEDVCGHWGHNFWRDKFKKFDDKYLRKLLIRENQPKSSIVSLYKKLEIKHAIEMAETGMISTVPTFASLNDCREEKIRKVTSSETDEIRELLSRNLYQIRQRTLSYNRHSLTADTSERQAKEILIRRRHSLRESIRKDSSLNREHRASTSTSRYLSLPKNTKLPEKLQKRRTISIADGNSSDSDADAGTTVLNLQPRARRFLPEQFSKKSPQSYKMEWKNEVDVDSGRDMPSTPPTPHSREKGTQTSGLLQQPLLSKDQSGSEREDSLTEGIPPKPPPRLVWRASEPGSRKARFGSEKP
Protocol: (§1) Human NHE2-LF and human NHE2-SF transfected PS120 cells were grown to confluence in collagen coated Fluorescent Laser Imaging Plate Reader (FLIPR) plates. To remove growth medium, the cells were washed with a 10 mM Hepes buffer, pH 7.4. A pH sensitive fluorescent dye, BCECF, AM (5 μM) (Molecular Probes, Eugene, Oreg.), was added to each well and the plates were incubated in a 37° C. humidified 5% CO2 incubator for approximately 20 minutes.
(§2) The cells were then washed with 30 mM NH4Cl buffer, pH 7.5, to remove excess dye. Plates were incubated with this buffer for approximately 45 minutes in a 37° C. humidified incubator.
5-(N,N-Hexamethylene)-amiloride ((hexa)-amiloride), amiloride, or a vehicle, was then added to each well and allowed to incubate for a minimum of 5 minutes prior to the initiation of intracellular acidification. The NH4Cl buffer was removed and the plates were placed on the FLIPR to establish a baseline fluorescence. […] (This process initiates intracellular acidification and the quenching of BCECF-related fluorescence. The resultant activation of the Na^+/H^+ exchanger and the decrease in intracellular H^+ ions produces in gradual increase in dye fluorescence towards baseline.) Changes in fluorescence were measured by the FLIPR over a period of 7 min. […]

human NHE2-SF = biological target: T2, human NHE2-SF (Homo sapiens, UniProt Q9UBY0); test: FLIPR assay of Na+/H+ exchange (BCECF fluorescence recovery) in human NHE2-SF transfected PS120 cells; type: cell-based
T2 construct: NotI/BgIII fragments including each of the entire coding regions were subcloned into pcDNA3.1(−) vectors; expressed in transfected cells; two lines tested
T2 sequence (Q9UBY0 116-812): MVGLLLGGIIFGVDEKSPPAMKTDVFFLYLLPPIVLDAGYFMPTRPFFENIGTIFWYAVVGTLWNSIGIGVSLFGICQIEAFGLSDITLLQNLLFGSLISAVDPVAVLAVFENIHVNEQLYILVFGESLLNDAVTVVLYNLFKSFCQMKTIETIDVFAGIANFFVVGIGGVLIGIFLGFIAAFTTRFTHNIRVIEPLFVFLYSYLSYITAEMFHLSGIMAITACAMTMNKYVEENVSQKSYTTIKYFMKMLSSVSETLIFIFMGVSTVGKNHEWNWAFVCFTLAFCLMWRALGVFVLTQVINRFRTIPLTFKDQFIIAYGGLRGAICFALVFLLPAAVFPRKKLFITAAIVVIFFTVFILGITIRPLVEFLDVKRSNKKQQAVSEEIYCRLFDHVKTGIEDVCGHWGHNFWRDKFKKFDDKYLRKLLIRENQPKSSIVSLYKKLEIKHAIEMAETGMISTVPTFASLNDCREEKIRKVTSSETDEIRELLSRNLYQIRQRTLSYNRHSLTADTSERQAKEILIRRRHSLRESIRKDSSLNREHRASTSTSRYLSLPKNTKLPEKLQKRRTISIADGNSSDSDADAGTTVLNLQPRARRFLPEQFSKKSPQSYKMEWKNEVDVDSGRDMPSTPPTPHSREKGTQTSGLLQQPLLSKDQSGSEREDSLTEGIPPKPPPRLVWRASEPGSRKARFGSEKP
Protocol: as §1, §2
5-(N,N-Hexamethylene)-amiloride ((hexa)-amiloride), amiloride, or a vehicle, was then added to each well and allowed to incubate for a minimum of 5 minutes prior to the initiation of intracellular acidification. The NH4Cl buffer was removed and the plates were placed on the FLIPR to establish a baseline fluorescence. A 10 mM hepes buffer, pH 7.4, containing the appropriate concentration of test compound or vehicle was added to each well of the plate. (This process initiates intracellular acidification and the quenching of BCECF-related fluorescence. The resultant activation of the Na^+/H^+ exchanger and the decrease in intracellular H^+ ions produces in gradual increase in dye fluorescence towards baseline.) Changes in fluorescence were measured by the FLIPR over a period of 7 min. Activity of the exchanger was calculated based on the percentage of fluorescence recovery as compared to control in the presence of varying concentrations of compounds (Table 2).

[1] = line #2, read-out: IC50 Values Determined By FLIPR, NHE2-SF line #2
[2] = line #, read-out: IC50 Values Determined By FLIPR, NHE2-SF line #

Structure (SMILES)	IC50 (human NHE2-LF) [nM]	IC50 (human NHE2-SF; [1]) [nM]	IC50 (human NHE2-SF; [2]) [nM]
N=C(N)NC(=O)c1nc(Cl)c(N)nc1N [Amiloride, amiloride]	27000	1370	1700
NC(N)=NC(=O)c1nc(Cl)c(N2CCCCCC2)nc1N [(hexa)-Amiloride, 5-(N,N-Hexamethylene)-amiloride]	7480	45	23
